Reference: patent US20260306657A1, “LIPOSOME CONJUGATE TARGETING M2 MACROPHAGE AND USE THEREOF” (HANGZHOU NORMAL UNIVERSITY, priority 2022, published 2026)

Columns and labels:
[1] = system: 4T1 breast cancer cells; experiment: Cytotoxicity on 4T1 breast cancer cells (CCK-8 method); type: cell-based; settings: 24 h, CCK-8, n=3
Protocol: Cytotoxicity Studies of Tumor-Targeted Liposomes:
(1) The toxicity of ELE to 4T1 breast cancer cells was studied using a CCK-8 method. 4T1 cells (2×10^4 cells/well) were inoculated in a 96-well plate. After culturing for 24 h, the cells were treated with RMPI-1640 media containing ELE, ELE/Lipo, ELE/Lipo-AS1411, and FA-ELE/Lipo-AS1411 (drug concentrations being 10 μg/mL, 20 μg/mL, 40 μg/mL, 80 μg/mL, and 160 μg/mL, respectively) for 24 h. ELE was dissolved and diluted in medium containing 1% 0 ethanol, and untreated cells were used as a control. 100 μL of 10% CCK-8 solution was added into each well and incubated for 2 h. The absorbance at 450 nm was measured using an enzyme-labeled instrument, and the IC50 value of each drug group was calculated and analyzed using Graphpad9.0. A schematic diagram of the cytotoxicity of different concentrations of free ELE, ELE/Lipo, ELE/Lipo-AS1411, and FA-ELE/Lipo-AS1411 on 4T1 cells was shown in FIG. 5, where n=3, x±SD, ** P<0.01, *** P<0.001, **** P<0.0001 (vs. ELE); #P<0.05, ###P<0.001 (vs. ELE/Lipo-AS1411).

[2] = system: M2 macrophages; experiment: Cytotoxicity of ELE on M1 and M2 macrophages (CCK-8 method); type: cell-based; settings: 24 h, at 5 concentrations (10-160 μg/mL), * P<0.05, n=3
Protocol: (2) The toxicity of ELE on M1 and M2 macrophages was studied using the CCK-8 method. RAW264.7 cells were pre-treated to polarize into M1 and M2 macrophages, and the M1 and M2 macrophages (2×10^5 cells/well) were inoculated in a 96-well plate. After culturing for 24 h, the cells were treated with 100 μL of DMEM high-glucose media containing ELE (drug concentrations being 10 μg/mL, 20 μg/mL, 40 μg/mL, 80 μg/mL, and 160 μg/mL, respectively) for 24 h. ELE was dissolved and diluted in medium containing 1% % ethanol, and untreated cells were used as a control. 100 μL of 10% CCK-8 solution was added into each well and incubated for 2 h. The absorbance at 450 nm was measured using an enzyme-labeled instrument, and the IC 50 values of each group of drugs were calculated and analyzed using Graphpad Prism 9.0. A schematic diagram of the cytotoxicity of different concentrations of ELE on M1 and M2 macrophages is shown in FIG. 6, where n=3, x±SD, * P<0.05, *** P<0.001, **** P<0.0001.

Substance: Elemene
- IC50 [1]: 921.4 µg/mL
- toxic effect on M2 macrophages (vs. M1 macrophages) [2]: selective toxic effect on M2 macrophages
